These results are taken from patent publication US5837219A, “Labelled acyl-L-carnitine and diagnostic agent” (Japan Science and Technology Corporation, priority 1995, dated 1998).

Entries after “also recorded” stand apart in the source; their conditions may differ.

The nature of data set [1]: PET uptake of labelled compounds into the brain of anesthetized rhesus monkeys after intravenous administration. It counts as in vivo, rhesus monkey. The conditions noted are these: i.v.; for uptake value into the brain: rhesus monkey under anesthesia, whole brain (WB 9), FIG. 1. From the text:
ACN, ACM, CRN and ACC prepared in Examples 1, 3 and 5 in equal amounts were intravenously administered to rhesus monkeys under anesthesia, respectively, at intervals of two hours, and the uptake value of those labelled compounds into the brain (whole brain: WB 9) and into the temporal muscle (TEM 11) was traced with time by the use of PET. The uptake value was obtained by the following calculation: [formula]

Data set [2] can be described thus: PET uptake of ACM into the whole brain, normal volunteers versus CFS patients. It counts as in vivo, human (normal volunteers. The settings on record: i.v., normal n=5, CFS n=6 (FIG. 3: n=5). The procedure:
(§1) ACM synthesized in Example 1 was intravenously administered to normal volunteers (n=5) and CFS patients (n=6), and the ACM uptake values into the whole brain and visual cortex were measured with time by means of PET.

Data set [3] can be described thus: PET uptake of ACM into the whole brain of a normal volunteer, rest and task condition. It counts as in vivo, human (normal volunteer). The conditions noted are these: i.v., FIG. 2. How it is done:
ACM synthesized in Example 3 was intravenously administered to a normal volunteer, and the uptake value of ACM into the whole brain was measured by use of PET in both the rest condition (WR 9) and task condition (calculation task, memory task: WB9-TASK).

Data set [4] can be described thus: ACM uptake value in blood plasma (hematocrit tube and imaging plate), normal volunteers versus CFS patients. The settings on record: normal n=5, CFS n=6, FIG. 6. Type of data set: in vivo, human (normal volunteers. The procedure: (§2) Blood was sampled from the normal volunteers and the CFS patients and the ACM uptake values in the blood plasma and blood cells thereof was measured by the combined method of hematocrit tube and imaging plate.

Data set [5] is described as follows: ACM uptake into erythrocytes and erythrocyte/blood plasma ratio (hematocrit tube and imaging plate), normal volunteers versus CFS patients. It counts as in vivo, human (normal volunteers. How it is done:
as §2

A short description of data set [6]: PET uptake of ACM into the visual cortex, normal volunteers versus CFS patients. Type of data set: in vivo, human (normal volunteers. The conditions noted are these: i.v. The procedure: as §1

For `CC(=O)O[C@H](CC(=O)[O-])C[N+](C)(C)[11CH3]` [ACC, acetyl-L-carnitine with the same label], the “uptake value into the brain” value in data set [1] was “not taken up into the brain almost at all”.
As to `C[N+](C)(C)C[C@@H](CC(=O)[O-])OC([11CH3])=O` [ACM, Acetyl-L-carnitine with the ^11 C-labelled secondary carbon atom of acetyl group], the “increase with time in the ACM uptake value into the whole brain, CFS patients versus normal volunteers” value in data set [2] is on record as “significantly lower than that in the normal volunteers”. In addition, the “uptake into the whole brain in the task condition relative to rest” value in data set [3] (calculation and memory task versus rest) is given as “about twice”. Further, in data set [3] (rest condition), the “uptake into the whole brain with time” value is given as “taken up with time even during rest condition”. Besides, the “ACM uptake value in blood plasma, course with time, normal volunteers and CFS patients” value in data set [4] is given as “almost the same course; also recorded: no difference”. The “uptake value into the brain” value in data set [1] is recorded as “excellent”. Besides, the “change of brain uptake with time” value in data set [1] (rhesus monkey, up to 60 minutes after the administration) is listed as “almost linearly increased up to 60 minutes after the administration”. Also, in data set [5] (CFS patients n=2, FIG. 7), the “ratio erythrocyte/blood plasma of ACM uptake value, increase with time, CFS patients” value is “inhibited in the CFS patients”. The “ACM uptake value into erythrocyte, CFS patients versus normal volunteers” value in data set [5] (inferred from erythrocyte/blood plasma ratio and unchanged plasma uptake) is “significantly lower than that in the normal volunteers”. Further, the “ratio erythrocyte/blood plasma of ACM uptake value, change with time, normal subjects” value in data set [5] (normal subjects n=2, FIG. 7) is recorded as “increased with time in the normal subjects”. Also, in data set [6] (FIG. 3 and FIG. 4), the “difference between CFS patients and normal volunteers in ACM uptake, visual cortex versus whole brain” value is “particularly observed in the visual cortex than in the whole brain”. Further, the “increase with time in the ACM uptake value into the visual cortex, CFS patients versus normal volunteers” value in data set [6] (normal n=5, CFS n=6, FIG. 4) is “significantly lower than that in the normal volunteers”.
With `C[11C](=O)O[C@H](CC(=O)[O-])C[N+](C)(C)C` [ACN, Acetyl-L-carnitine with ^11 C-labelled primary carbon atom of acetyl group], the “uptake value into the brain” value in data set [1] was “taken up into the brain only slightly”.
Turning to `C[N+](C)([11CH3])C[C@H](O)CC(=O)[O-]` [CRN, L-carnitine with the ^11 C-labelled N-methyl carbon atom of carnitine, reference compound], the “uptake value into the brain” value in data set [1] is “not taken up into the brain almost at all”.
